A short description of data set [1]: Cytotoxicity against human MT2 cells by MTT assay. It counts as cell-based. A general note: Tetrazolium assays rely on reduction of a dye to a coloured formazan, in cell work by metabolically active cells.
The subject of data set [2] is Human immunodeficiency virus 1. Nature of the data set: Antiviral activity against HIV1 bearing VSV glycoprotein infected in human MT2 cells assessed as inhibition of viral replication after 48 hrs by luciferase reporter gene assay. It counts as functional, organism-based. As to conditions: Human immunodeficiency virus 1, MT2, 48 h. For orientation: A reporter such as luciferase makes a cellular process visible.

For data set [3], the system named is Human immunodeficiency virus 1. The data set is described as follows: Antiviral activity against reverse transcriptase multidrug-resistant HIV1 infected in human TZM-bl cells assessed as inhibition of viral replication after 4 days by p24 based ELISA. It counts as functional, organism-based. As to conditions: Human immunodeficiency virus 1, TZM-bl, 96 h. Background: An ELISA detects its analyte on a solid surface through an enzyme-linked reagent.

The subject of data set [4] is Human immunodeficiency virus 1. Nature of the data set: Antiviral activity against wild type HIV1 NL4-3 infected in human TZM-bl cells assessed as inhibition of viral replication after 4 days by p24 based ELISA. The note with it: Human immunodeficiency virus 1, NL4-3, TZM-bl, 96 h. It counts as functional, organism-based.
Data set [5] relates to Human immunodeficiency virus 1. Nature of the data set: Antiviral activity against HIV1 NL4-3 with reverse transcriptase K101E mutant infected in human TZM-bl cells assessed as inhibition of viral replication after 4 days by p24 based ELISA. Format: functional, organism-based. The note with it: Human immunodeficiency virus 1, NL4-3, TZM-bl, 96 h.
Data set [6] has as its system Human immunodeficiency virus 1. Nature of the data set: Ratio of compound IC50 to zidovudine IC50 for HIV1 bearing VSV glycoprotein infected in human MT2 cells assessed as inhibition of viral replication after 48 hrs by luciferase reporter gene assay. Format: functional.
Data set [7] has as its system Human immunodeficiency virus 1. Nature of the data set: Ratio of compound IC50 to 1-(20-deoxy-40-C-ethynyl-beta-D-arabinofuranosyl)-thymine IC50 for HIV1 bearing VSV glycoprotein infected in human MT2 cells assessed as inhibition of viral replication after 48 hrs by luciferase reporter gene assay. It counts as functional.

What is called CC50 is the concentration that lowers cell viability or growth by half. The low end stands for harm at low concentration, the high end for better tolerance by the cells. Broadly, the IC50 is the midpoint of a concentration-inhibition curve. Compound `C#C[C@]1(CO)O[C@@H](n2ccc(=O)[nH]c2=O)[C@@H](F)[C@@H]1O` gave a CC50 in data set [1] above 10000 nM. Further, the concentration for half-maximal inhibition (IC50) in data set [2] came out at 6530 nM.

Take `C#C[C@]1(CO)O[C@@H](n2ccc(N)nc2=O)[C@@H](F)[C@@H]1O`: the IC50 in data set [3] came to 1.45 nM; in data set [4], 0.46 nM; in data set [5], 1.52 nM; in data set [2] it was 1.34 nM. In addition, the cytotoxic concentration (CC50) in data set [1] is above 10000 nM. The “Ratio IC50” value in data set [6] amounted to 35.

In the case of `Cc1cn([C@H]2C[C@H](N=[N+]=[N-])[C@@H](CO)O2)c(=O)[nH]c1=O` [ZIDOVUDINE], the CC50 in data set [1] is above 200000 nM. Besides, in data set [2], the IC50 stood at 47 nM.

In the case of `C#C[C@]1(CO)O[C@@H](n2cc(C)c(=O)[nH]c2=O)[C@@H](F)[C@@H]1O`, the “Ratio IC50” value in data set [7] was 10. The compound further displayed a CC50 in data set [1] above 10000 nM. Moreover, in data set [2], the IC50 was 86 nM.
